The results in this text go back to ChEMBL document CHEMBL4002603, “Structure-activity relationship study and discovery of indazole 3-carboxamides as calcium-release activated calcium channel blockers” (Bioorg Med Chem Lett, 2017).

SMILES strings stand for the structures. Activity calls are given as the source filed them. The rule behind the calls is not given here.

Type in all cases: cell-based
Data set [1] can be described thus: Inhibition of thapsigargin activated calcium-release activated channel in rat RBL2H3 mast cells assessed as decrease in calcium influx by Fluo-4NW calcium assay.
For data set [2], the system named is RBL-2H3. Nature of the data set: Cytotoxicity against rat RBL2H3 mast cells at 100 uM by CCK8 cell viability assay. Particulars: rbl-2h3, 100 µM.
The species named for data set [3] is Rattus norvegicus. Kind of data set: Inhibition of thapsigargin activated calcium-release activated channel in rat RBL2H3 mast cells assessed as decrease in calcium influx at 100 uM by Fluo-4NW calcium assay.
The species named for data set [4] is Rattus norvegicus. Kind of data set: Inhibition of thapsigargin activated calcium-release activated channel in rat RBL2H3 mast cells assessed as decrease in calcium influx at 30 uM by Fluo-4NW calcium assay.
Data set [5] is filed under the species Rattus norvegicus. Nature of the data set: Inhibition of thapsigargin activated calcium-release activated channel in rat RBL2H3 mast cells assessed as decrease in calcium influx at 10 to 100 uM by Fluo-4NW calcium assay.
A short description of data set [6]: (§1) Inhibition of thapsigargin activated calcium-release activated channel in rat RBL2H3 mast cells assessed as decrease in release of beta-hexosaminidase preincubated for 30 mins followed by extracellular calcium addition by ELISA method. Particulars: RBL-2H3. (An ELISA detects its analyte on a solid surface through an enzyme-linked reagent.)
For data set [7], the species on record is Rattus norvegicus. The description is as §1.
Data set [8] in a line: (§2) Inhibition of thapsigargin activated calcium-release activated channel in rat RBL2H3 mast cells assessed as decrease in nuclear translocation of NFAT-c1 measured 30 mins after extracellular calcium exposure by ELISA. Particulars: RBL-2H3, 0.5 h.
Data set [9] is filed under the species Rattus norvegicus. The data set is described as §2.
The species entered for data set [10] is Rattus norvegicus. Kind of data set: (§3) Inhibition of thapsigargin activated calcium-release activated channel in rat RBL2H3 mast cells assessed as decrease in TNFalpha secretion measured 4 hrs after extracellular calcium exposure by ELISA.
Data set [11] is described as follows: as §3. Particulars: RBL-2H3, 4 h.
Setting [12] is: Rattus norvegicus, RBL-2H3, read-out: IC50.

The IC50 is the midpoint of a concentration-inhibition curve. For `Cc1cc(NC(=O)c2nn(Cc3ccc(Cl)cc3Cl)c3c2CCCCC3)ccn1`, the IC50 in data set [1] (setting [12]) was more than 30000 nM. In [2], the Activity result was “Non-Toxic”.

As usually defined, the inhibition is how much of the control response was suppressed. For `O=C(Nc1nn(Cc2ccc(Cl)cc2Cl)c2ccccc12)c1ccc(F)cc1F`, the inhibition in [3] was less than 50%. Moreover, the Activity result in data set [2] is “Non-Toxic”.

Take `O=C(Nc1nn(Cc2ccc(Cl)cc2Cl)c2ccccc12)c1c(F)cccc1F`: the inhibition in [3] is less than 50%. Besides, in [2], the Activity result is “Non-Toxic”.

As for `Cc1nnsc1C(=O)Nc1nn(Cc2ccc(Cl)cc2Cl)c2ccccc12`, the IC50 in data set [1] (setting [12]) is more than 30000 nM. Further, the inhibition in [4] lay within 44 to 48%. In addition, the Activity entry in [2] is “Non-Toxic”.

On to `Cc1cc(NC(=O)c2nn(Cc3ccc(Cl)cc3Cl)c3c2CCCC3)ccn1`, for which the half-maximal inhibitory concentration (IC50) result in [1] is given as “Nd(Insoluble)”. The Activity entry in [2] is “Non-Toxic”.

As to `O=C(Nc1cnns1)c1nn(Cc2ccc(Cl)cc2Cl)c2ccccc12`, in data set [3], the inhibition is less than 50%. For the same compound, the Activity result in [2] is listed as “Non-Toxic”.

Take `O=C(Nc1ccc(F)cc1F)c1nn(Cc2ccc(Cl)cc2Cl)c2ccccc12`: in data set [1] (setting [12]), the IC50 was determined as 2330 nM. Also, the Activity result in data set [2] was “Non-Toxic”. The inhibition entry in data set [5] is “Active”.

Turning to `O=C(Nc1ccnc(F)c1)c1nn(Cc2ccc(Cl)cc2Cl)c2c1CCCCC2`, the half-inhibitory concentration (IC50) entry in [1] was “Nd(Insoluble)”. Also, the Activity entry in [2] is “Non-Toxic”.

Consider `O=C(Nc1cc(F)nc(F)c1)c1nn(Cc2ccc(Cl)cc2Cl)c2c1CCCC2`, for which the IC50 in data set [1] (setting [12]) is 1340 nM. Also, the Activity entry in data set [2] is “Non-Toxic”.

For `O=C(Nc1nn(Cc2ccc(Cl)cc2Cl)c2ccccc12)c1ccccc1F`, the half-maximal inhibitory concentration (IC50) in [1] (setting [12]) worked out at 29000 nM. For the same compound, in data set [2], the Activity result was “Non-Toxic”. For the same compound, the inhibition entry in [5] was “Active”.

Regarding `O=C(Nc1cc(F)nc(F)c1)c1nn(Cc2ccc(Cl)cc2Cl)c2c1CCCCC2`, in data set [1] (setting [12]), the concentration for half-maximal inhibition (IC50) was 12800 nM. In addition, in data set [2], the Activity entry was “Non-Toxic”.

For the compound `O=C(Nc1nn(Cc2ccc(Cl)cc2Cl)c2ccccc12)c1cc(F)nc(F)c1`, the inhibition in data set [3] was less than 50%. The Activity result in data set [2] was “Non-Toxic”.

A word on the EC50: it is the concentration that produces a half-maximal response. On to `O=C(Nc1ccnc(F)c1)c1nn(Cc2ccc(Cl)cc2Cl)c2ccccc12`, for which the figures for the IC50 in [1] (setting [12]) and in [8] were 670 nM and 1600 nM, respectively. The Activity entry in data set [2] is “Non-Toxic”. Besides, the half-maximal effective concentration (EC50) in data set [6] was 860 nM. In addition, the inhibition entry in data set [7], in data set [9] and in data set [10] was “Dose-dependent effect” in each case. For the same compound, the inhibition result in [5] was “Active”.

Regarding `O=C(Nc1ccnc(F)c1)c1nn(Cc2ccc(Cl)cc2Cl)c2c1CCC2`, the half-inhibitory concentration (IC50) in data set [1] (setting [12]) was determined as 990 nM. Besides, the Activity result in [2] is reported as “Non-Toxic”.

Regarding `O=C(Nc1ccnc(F)c1)c1nn(Cc2ccc(Cl)cc2Cl)c2c1CCCC2`, in data set [1] (setting [12]), the half-inhibitory concentration (IC50) was 1530 nM. Besides, in [2], the Activity entry was “Non-Toxic”.

In the case of `Cc1cc(NC(=O)c2nn(Cc3ccc(Cl)cc3Cl)c3c2CCC3)ccn1`, in data set [1] (setting [12]), the IC50 was more than 30000 nM. The Activity result in [2] is reported as “Non-Toxic”.

For `O=C(Nc1c(F)cccc1F)c1nn(Cc2ccc(Cl)cc2Cl)c2ccccc12`, the 50% inhibitory concentration (IC50) amounted to 1510 nM in data set [1] (setting [12]) and 470 nM in data set [11]. The Activity entry in [2] was “Non-Toxic”. Further, the inhibition result in data set [10] is “Dose-dependent effect”. Further, the inhibition result in data set [5] was “Active”.

Take `Cc1cc(C(=O)Nc2nn(Cc3ccc(Cl)cc3Cl)c3ccccc23)ccn1`: the IC50 in [1] (setting [12]) was more than 30000 nM. Besides, the inhibition in [4] lay within 44 to 48%. The Activity entry in [2] is “Non-Toxic”.

In the case of `O=C(Nc1cc(F)nc(F)c1)c1nn(Cc2ccc(Cl)cc2Cl)c2ccccc12`, in data set [1] (setting [12]), the IC50 is more than 30000 nM. In addition, the inhibition in data set [4] turned out to be 46%. The Activity result in data set [2] was “Non-Toxic”.

On to `O=C(Nc1nn(Cc2ccc(Cl)cc2Cl)c2ccccc12)c1ccnc(F)c1`, for which, in data set [3], the inhibition was less than 50%. Besides, the Activity result in data set [2] is listed as “Non-Toxic”.

On to `O=C(Nc1ccccc1F)c1nn(Cc2ccc(Cl)cc2Cl)c2ccccc12`, for which the concentration for half-maximal inhibition (IC50) in [1] (setting [12]) was more than 30000 nM; in data set [11], 280 nM. In addition, the inhibition is 44 to 48% in data set [4] and “Dose-dependent effect” in data set [10]. Moreover, the Activity entry in [2] is “Non-Toxic”.

`Cc1cc(NC(=O)c2nn(Cc3ccc(Cl)cc3Cl)c3ccccc23)ccn1`: the inhibition in data set [3] was less than 50%. For the same compound, the Activity result in [2] was “Non-Toxic”.

Turning to `O=C(Nc1c(F)cccc1Cl)c1nn(Cc2ccc(Cl)cc2Cl)c2ccccc12`, the half-inhibitory concentration (IC50) amounted to 3230 nM in data set [1] (setting [12]) and 740 nM in data set [11]. Moreover, the Activity result in [2] is on record as “Non-Toxic”. In addition, the inhibition result in [10] is “Dose-dependent effect”. In data set [5], the inhibition result was “Active”.

For `O=C(Nc1cc(F)nc(F)c1)c1nn(Cc2ccc(Cl)cc2Cl)c2c1CCC2`, the IC50 in data set [1] (setting [12]) stood at 650 nM. Further, the Activity result in data set [2] is recorded as “Non-Toxic”.
